Experimental data from patent US20050271588A1, “Liposome targeting of matrix metalloproteinase inhibitors” (priority 2001, published 2005).
Positions of bridges follow the written chain, without caps; N, C: chain ends. Residues, ends and D or L forms follow the SMILES beside them.

How the values were obtained:
tumor = conditions: mouse models; cited from earlier work
[1] = Trp fluorescence emission anisotropy with liposomes; format: physicochemical; conditions: 37° C.
Procedure: Fluorescence polarization of the Trp residue of CTT as a function of increasing concentration of liposomes was measured using rotating polarizers in the excitation and emission beams, with a bandpass of 10 nm. The results are expressed as emission anisotropy (Lakowicz, 1999) calculated as follows: r=(I∥−I⊥)/(I∥+2I⊥). In this equation I⊥ and I∥ represent the emission intensity perpendicular and parallel, respectively, to the excitation polarizer.

[2] = Assay for lipid mixing (liposome fusion, NBD-PE/DPPRho); format: physicochemical; conditions: within 15 min
Procedure: The extent of exposure of Trp to the aqueous phase was studied using I— as a collisional quencher (Lakowicz, 1999). The extent of quenching was calculated by using the equation: F0/F=1+k[Q]=1+kqτ0[Q] where F0 and F are Trp fluorescence intensities at 345 nm in the absence and presence of the quencher, Q, τ0 is Trp fluorescence lifetime in the absence of the quencher, k is the Stern-Volmer constant (obtained from the slope of the linear fit of the data). Fluorescence of Trp in CTT (5 μM) and its quenching were measured in the absence and presence of POPC/POPE (80:20, mol/mol) LUVs (final lipid concentration of 0.5 mM). The results were corrected for background caused by PBS and liposomes. Assay for lipid mixing. The ability of the CTT, CLP, STT, and CWL peptides to induce liposome fusion was assessed by measuring lipid mixing, as described earlier (Struck et al., 1981). In brief, NBD-PE (X=0.01) and DPPRho (X=0.01) were incorporated into liposomes (POPC/POPE, 78/20, mol/mol). Due to the spectral overlap of NBD-PE (donor) emission and DPPRho (acceptor) absorption resonance energy transfer between these dyes is highly efficient. As liposomes containing NBD-PE and DPPRho are mixed with non-labeled liposomes, fusion is observed as an increase in the emission intensity of NBD-PE due to the dilution of probes. Excitation and emission wavelengths for NBD-PE at 430 nm and 530 nm were used. All fluorescence measurements were done at 37° C.

U937 leukemia cells = test: Association of DPPRho-labelled liposomes with cells; format: cell-based; conditions: U937, 5 min
Procedure: Assays for liposome uptake by cells. In order to study the effects of the different peptides on the cellular uptake of liposomes, rhodamine-labelled phospholipid analog (DPPRho) was incorporated into liposomes as a tracer, to yield a composition POPC/POPE/DPPRho (80:19:1, mol/mol). The indicated peptides were mixed with LUVs and subsequently added to cells cultured in microtiter well plates. After an incubation for 5 min at 38° C. liposomes not bound to the cells were removed by rinsing the cells three times with cold PBS. The relative amount of DPPRho associated with the cells was determined using Tecan Spectrafluor Plus microplate reader (Tecan, Hombrechtigon, Switzerland) with excitation at 535 nm and emission at 595 nm.

[3] = tested on: HT1080 fibrosarcoma cells; test: Uptake of liposome-encapsulated rhodamine B by HT1080 cells; format: cell-based, human; conditions: for Enhanced liposome uptake: HT1080
Procedure: In another series of experiments the water-soluble fluorescent marker rhodamine B was encapsulated into liposomes and its uptake by cells was measured. Samples for rhodamine B uptake were prepared by mixing 60 μl of POPC/POPE (80/20, mol/mol, one mM) liposomes containing 10 μM rhodamine B to 300 μl of DMEM medium supplemented with 10% fetal bovine serum, Glutamax I, penicillin 100 U/ml and streptomycin 0.1 mg/ml. Peptides were then added to obtain a final concentration of […]. Ten μl (10^5 cells) of medium containing the indicated cells were combined with the LUVs. After an incubation for 15 min at 37° C. or +4° C. liposomes not bound to the cells were removed from 96-well plates by rinsing three times with cold PBS. The +4° C. temperature served as a control for non-endocytotic liposome uptake by cells (Oess and Hildt, 2000). The relative amount of rhodamine B associated with the cells was determined using microplate reader with excitation at 535 nm and emission at 595 nm.
We also preincubated cells with phorbol ester (TPA) (50 nM). Preincubation times varied from 15 to 75 min. Treatment of cells by phorbol ester (TPA) increases both expression and secretion of MMP-9 (Toth et al., 1997). Results are presented as RFI=I/I0, where RFI is relative fluorescence intensity, I0 is the emission intensity for the control, 2 μM rhodamine B in LUVs without the peptides, and I is the rhodamine emission for the peptide-liposome complexes taken up by the cells. […] M-17 inhibits the binding of MMP-9 to the substrate and this inhibition is expected to be concentration dependent. […]
Cell cultures and fluorescence microscopy. […] Uptake of rhodamine B containing liposomes by the cultured cells was verified by fluorescence microscopy. An inverted fluorescence microscope (Zeiss IM 35) equipped with Nikon extra long working distance objectives (20×) and (40×) were used. […] Fluorescence images were viewed with a Peltier-cooled digital camera (C4742-95, Hamamatsu, Japan) connected to a computer and operated by software (Hipic 5.0) provided by the instrument manufacturer.

- Trp emission anisotropy r ([1]; 230 μM phospholipid, CTT 5 μM): 0.349
- Trp emission anisotropy r ([1]; absence of liposomes, CTT 5 μM in PBS): 0.065
- Lipid mixing / vesicle fusion (NBD-PE emission) [2]: lack of lipid mixing
SMILES: CC(C)C[C@@H]1NC(=O)[C@H]([C@@H](C)O)NC(=O)[C@H](Cc2ccccc2)NC(=O)CNC(=O)[C@H](Cc2c[nH]c3ccccc23)NC(=O)[C@H](Cc2c[nH]cn2)NC(=O)[C@H]([C@@H](C)O)NC(=O)[C@H]([C@@H](C)O)NC(=O)[C@@H](N)CSSC[C@@H](C(=O)O)NC1=O [CTT] (H-CTTHWGFTLC-OH; disulfide 1-10; N-terminus and C-terminus assumed)
- Tumor progression in vivo (tumor): inhibited
- Increase of DPPRho marker bound to cells with peptide vs without (U937 leukemia cells): approx. 3.7 fold
- Enhanced liposome uptake ([3]; 4° C.): not at 4 °C
- Enhanced liposome uptake ([3]; 37° C.): evident only at 37 °C
- Rhodamine intake, fluorescence microscopy ([3]; HT 1080, liposomes with vs without CTT): enhanced
